Source: paper PMC10111022, “Comparison of pharmacological inhibitors of lysine-specific demethylase 1 in glioblastoma stem cells reveals inhibitor-specific efficacy profiles” (Frontiers in Neurology, 2023)

Columns and labels:
MDA-GSC 262 = experiment: Cell viability dose response (IC50), MDA-GSC 262; type: cell-based; settings: Homo sapiens, mean of three independent experiments
Experimental: (§1) MDA-GSCs were plated at 50,000 cells/well into 12-well plates at and allowed to grow for 5 days until neurospheres were formed. The cells were then treated with either TCP, GSK-LSD1, or RN-1 at various concentrations for 5 days. Next, the cells were collected and neurospheres were dissociated with Accutase (BioLegend; San Diego, CA). Cell viability was determined using a trypan dye exclusion assay and read with the Vi-Cell XR Cell Viability Analyzer (Beckman Coulter; Brea, CA). NHAs were plated at 50,000 cells/well into 12-well plates and allowed to adhere overnight. The following day, NHAs were treated with the LSD1 inhibitors. After 5 days, the cells were detached using TrypLE and assessed with the trypan blue dye exclusion assay.
(§2) The alamarBlue cell viability (Bio-Rad; Hercules, CA) was performed on the MDA-GSCs according to the manufacturer’s protocol. The cells were plated at 5,000 cell/well into a 96-well plate and allowed to grow for 5 days. After 5 days, the alamarBlue reagent was added and fluorescence was measured with the Synergy 2 (BioTek Instruments; Winooski, VT) plate reader according to the manufacturer’s protocol.

MDA-GSC 7–2 = experiment: Cell viability dose response (IC50), MDA-GSC 7–2; type: cell-based; settings: Homo sapiens, mean of three independent experiments
Experimental: as §1, §2

NHA = experiment: Cell viability dose response (IC50), normal human astrocytes; type: cell-based; settings: for IC50: Homo sapiens, Astrocyte, mean of three independent experiments; for effect on NHA viability: NHA treated at the maximum concentration tested for each compound
Experimental: as §1, §2

MDA-GSC 20 = experiment: Cell viability dose response (IC50), MDA-GSC 20; type: cell-based; settings: Homo sapiens, mean of three independent experiments
Experimental: as §1, §2

MDA-GSC 8–11 = experiment: Cell viability dose response (IC50), MDA-GSC 8–11; type: cell-based; settings: Homo sapiens, mean of three independent experiments
Experimental: as §1, §2

MDA-GSC 17 = experiment: Cell viability dose response (IC50), MDA-GSC 17; type: cell-based; settings: Homo sapiens, mean of three independent experiments
Experimental: as §1, §2

MDA-GSC lines = experiment: Cell viability across the panel of nine MDA-GSC lines; type: cell-based, Human; settings: for concentrations at which MDA-GSC viability was reduced: many/several MDA-GSC lines, dose response curves Figure 2
Experimental: as §1, §2

MDA-GSC 311 = experiment: Cell viability dose response (IC50), MDA-GSC 311; type: cell-based; settings: Homo sapiens, mean of three independent experiments
Experimental: as §1, §2

MDA-GSC 23 = experiment: Cell viability dose response (IC50), MDA-GSC 23; type: cell-based; settings: Homo sapiens, mean of three independent experiments
Experimental: as §1, §2

[1] = parameters: method as in PMID 34786883, PMID 33052756; settings: safety studies; cited from earlier work
MDA-GSC 6–27 = experiment: Cell viability dose response (IC50), MDA-GSC 6–27; type: cell-based; settings: Homo sapiens, mean of three independent experiments
Experimental: as §1, §2

MDA-GSC 7–11 = experiment: Cell viability dose response (IC50), MDA-GSC 7–11; type: cell-based; settings: Homo sapiens, mean of three independent experiments
Experimental: as §1, §2

MDA-GSC8-11 = experiment: qPCR of resistance-related genes, MDA-GSC8-11; type: cell-based, Human; settings: MDA-GSC8-11 (resistant)
Experimental: (§3) Total RNA was extracted using RNeasy Plus Mini Kit (Qiagen; Hilden, Germany) following the manufacturer’s protocol. cDNA was synthesized with the iScript cDNA synthesis kit (Bio-Rad; Hercules, CA), qPCR was performed using Forget-Me-Not EvaGreen qPCR kit (Biotium; Fremont, CA), and samples were analyzed with the LightCycler96 (Roche; Basel, Switzerland). Cq values were normalized to PPIA and reported as relative fold change from untreated control.

MDA-GSC20 = experiment: qPCR of resistance-related genes, MDA-GSC20; type: cell-based, Human; settings: MDA-GSC20 (resistant)
Experimental: as §3

MDA-GSC7-2 = experiment: qPCR of resistance-related genes, MDA-GSC7-2; type: cell-based, Human; settings: MDA-GSC7-2 (sensitive)
Experimental: as §3

MDA-GSC17 = experiment: qPCR of resistance-related genes, MDA-GSC17; type: cell-based, Human; settings: MDA-GSC17 (sensitive)
Experimental: as §3

[2] = parameters: method as in personal communications, Salarius Pharmaceuticals; settings: ref personal communications, Salarius Pharmaceuticals; cited from earlier work

Compound | IC50 (MDA-GSC 262) [µM] | IC50 (MDA-GSC 7–2) [µM] | IC50 (NHA; NHA) [µM] | IC50 (MDA-GSC 20) [µM] | IC50 (MDA-GSC 8–11) [µM] | IC50 (MDA-GSC 17) [µM] | concentrations at which MDA-GSC viability was reduced (MDA-GSC lines) | IC50 (MDA-GSC 311) [µM] | IC50 (MDA-GSC 23) [µM] | neurotoxic effects in human trials [1] | IC50 (MDA-GSC 6–27) [µM] | IC50 (MDA-GSC 7–11) [µM] | effect on NHA viability (NHA) | also measured
CN1CCN(C(=O)[C@H](CCCN[C@@H]2C[C@H]2c2ccc(F)cc2)NC(=O)c2ccc(-n3ccnn3)cc2)CC1 [IMG-7289] | 41.2 | 32.1 | 38.2 | 66.9 | 56.1 | 87.4 | < 50 µM | > 125 | 34.2 | have not revealed any neurotoxic effects | 39.9 | 23.6 |  | 
NC1CC1c1ccccc1 (stereo not shown) [TCP, tranylcypromine] | 4100 | 2700 | > 5000 | 4700 | > 5000 | 2200 |  | 3500 | 2700 |  | > 5000 | > 5000 | minimal effect | expression of resistance-related genes (MDA-GSC8-11): increase in two of the resistance related genes; expression of resistance-related genes (FTH1, RAB39B, HKDC1, FAM213A) (MDA-GSC20): consistently increased; expression of resistance-related genes (FTH1, RAB39B, HKDC1, FAM213A) (MDA-GSC7-2): only minimal effects; expression of resistance-related genes (MDA-GSC17): did not significantly increase; effects on cell viability (MDA-GSC lines; MDA-GSC lines, Figure 2C): not seen until mM concentrations
Nc1nnc(CN[C@@H]2C[C@H]2c2ccc(OCc3ccccc3)cc2)o1 [ORY-2001] | > 50 | > 50 | > 50 | > 50 | > 50 | > 50 |  | 45.6 | 48.1 |  | > 50 | 42.1 |  | IC50 (MDA-GSC lines; Homo sapiens, majority of MDA-GSCs, maximum dose 50 μM): > 50 µM
CN1CCN(C(=O)CN[C@H]2C[C@@H]2c2ccc(OCc3ccccc3)cc2)CC1 [RN-1] | > 50 | > 50 | > 50 | 39.8 | > 50 | 22.5 | 20 to 50 µM | > 50 | > 50 |  | 23.8 | > 50 | minimal effect | 
N[C@H]1CC[C@H](N[C@@H]2C[C@H]2c2ccccc2)CC1 [ORY-1001] | 92.7 | 87.7 | 96.3 | 54.8 | 64.5 | 107 | 50 to 90 µM | > 150 | 97.8 | have not revealed any neurotoxic effects | 72.8 | 64.7 |  | 
C/C(=N\NC(=O)c1cccc(S(=O)(=O)N2CCN(C)CC2)c1)c1cc(Cl)ccc1O [SP-2577] | 8.8 | 9.7 | 2.3 | > 25 | 12.4 | 15.7 | less than 10 μM | 23.6 | 16.8 |  | 6.8 | 5.6 |  | crossing of the blood brain barrier [2]: has not been found to cross the blood brain barrier; activity in noncancerous cells, NHA (NHA; NHA, Figure 2J): strong activity
